Measurements published in ChEMBL document CHEMBL1122533 (J Med Chem, 1984).
Peptide text beside a SMILES is read from it. * marks the point of attachment. Cbz = O=C(OCc1ccccc1)*; Boc = CC(C)(C)OC(=O)*

How the values were obtained:
[1] = test system: Rattus norvegicus; test: Compound was tested for the in vivo antagonist activity calculated from ED50 value, by estimating at 25 mL the mean blood volume in a 300-g rat and expressed as molarity; type: functional
[2] = test system: Rattus norvegicus; test: In vivo antagonistic effect on gastric acid secretion in the perfused rat stomach; type: functional

What does the source list for `CSCC[C@H](NC(=O)[C@H](Cc1c[nH]c2ccccc12)NC(=O)CNC(=O)[C@H](Cc1ccc(O)cc1)NC(=O)OC(C)(C)C)C(=O)N[C@@H](CC(=O)O)C(N)=O` (Boc-YGWMD-NH2)?
Activity [1]: 3.1e-05; ED50 [2]: 2 mg/kg

What does the source list for `CSCC[C@H](NC(=O)[C@H](Cc1c[nH]c2ccccc12)NC(=O)OC(C)(C)C)C(=O)N[C@@H](CC(=O)O)C(N)=O` (Boc-Trp-Met-Asp-NH2)?
Activity [1]: 0.00016; ED50 [2]: 7.5 mg/kg

Which Activity [1] does the source give for `CSCC[C@H](NC(=O)[C@H](Cc1c[nH]c2ccccc12)NC(=O)CNC(=O)[C@H](Cc1ccc(O)cc1)NC(=O)[C@H](C)NC(=O)[C@H](CCC(=O)O)NC(=O)OCc1ccccc1)C(=O)N[C@@H](CC(=O)O)C(N)=O` (Cbz-EAYGWMD-NH2) here?
Its Activity is 1.8e-05.

What about the ED50 [2] of the same molecule?
Its ED50 is 1.5 mg/kg.

How did the Activity [1] turn out when `CSCC[C@H](NC(=O)[C@H](Cc1c[nH]c2ccccc12)NC(=O)CNC(=O)OC(C)(C)C)C(=O)N[C@@H](CC(=O)O)C(N)=O` (Boc-GWMD-NH2) was run?
Its Activity is 0.0001.

What about the ED50 [2] of the same molecule?
The ED50 was 5 mg/kg.
